Publication PMC2644304 (Nature chemical biology, 2009)

Target: AcsD (Dickeya chrysanthemi, UniProt Q93AT8)
Assay: X-ray crystal structure of the complex
Type: binding
Conditions: co-crystal with sulfate and citrate; ATP site

## Nc1ncnc2c1ncn2[C@@H]1O[C@H](CO)[C@@H](O)[C@H]1O [adenosine]
  X-ray crystal structure of the complex: adenosine binds in the same pocket as seen in the ATP structure
